{
  "source": "patent US20240390332A1",
  "about": "“Combination treatment and/or prevention of renal diseases and/or hypertension in non-human mammals comprising one or more SGLT-2 inhibitors and telmisartan” (BOEHRINGER INGELHEIM VETMEDICA GMBH, priority 2023, published 2024)",
  "origin": "cited, not measured here",
  "tested_on": "human patients suffering from diabetes mellitus type II",
  "details": "baseline to week 12, empagliflozin 10 mg and 25 mg groups vs placebo",
  "data": [
    {"smiles": "OC[C@H]1O[C@@H](c2ccc(Cl)c(Cc3ccc(O[C@H]4CCOC4)cc3)c2)[C@H](O)[C@@H](O)[C@@H]1O", "note": "[empagliflozin, Empagliflozin]", "values": [
      {"measurement": "mean 24-hour systolic BP, placebo-subtracted mean difference", "value": "up to −4.16 mmHg"}
    ]}
  ]
}
